Key:
[1] = Liver microsome stability test; format: in vitro ADME; conditions: rat liver microsomes, compound 1 μM, 0.5 mg/mL microsome, 37° C.; for half-life at 1 μM: pH 7.4
Procedure: The solution of compound in DMSO (10 mM) was diluted with a mixed solvent of acetonitrile and water (1:1, v/v) to get a 100 μM compound solution, and then the 100 μM compound solution was diluted with potassium phosphate buffer (0.1 M, pH 7.4) to get a 3 μM compound solution. NADPH was formulated with potassium phosphate buffer (0.1 M, pH 7.4) to NADPH solution (6 mM). Rat liver microsome was formulated with potassium phosphate buffer (0.1 M, pH 7.4) to liver microsome solution (1.5 mg/mL).
The total volume of incubation mixture was 45 μL, including 15 μL rat liver microsome solution (1.5 mg/mL), 15 μL compound solution (3 μM) and 15 μL NADPH solution (6 mM), the final concentration of liver microsome in the incubation mixture was 0.5 mg/mL, the compound concentration was 1 μM, the NADPH concentration was 2 mM.
The incubation mixture was incubated at 37° C. The reaction was terminated by adding 120 μL acetonitrile solution containing internal standard at different time points (20 min and 60 min), and centrifuged at 4000 rpm for 5 min. The supernatant was took out and analyzed by LC-MS/MS.
At the same time, a parallel incubation test was set up, using inactivated rat liver microsomes as negative control and verapamil at the same concentration as positive control. The reaction was incubated at 37° C. and terminated at different time points (20 minutes and 60 minutes).
The ratio of sample peak area to internal standard peak area was obtained by analyzing through LC/MS/MS, the drug content of the negative control was as 100%, the drug relative content at each time point was calculated. The rate constant was obtained by plotting based on “Log[compound concentration]” to “incubating time”, and then the half-life T1/2 and intrinsic clearance CLHep of the compound were calculated.

[2] = target: farnesoid X receptor protein (Homo sapiens (Human), UniProt Q96RI1); assay: Coactivation of TR-FRET farnesoid X receptor protein (Invitrogen PV4833 Kit); format: biochemical; conditions: TR-FRET coactivator recruitment, Fluorescein-SRC2-2, 1 hour at room temperature
Sequence of farnesoid X receptor protein (Q96RI1 262-486, other chains not shown): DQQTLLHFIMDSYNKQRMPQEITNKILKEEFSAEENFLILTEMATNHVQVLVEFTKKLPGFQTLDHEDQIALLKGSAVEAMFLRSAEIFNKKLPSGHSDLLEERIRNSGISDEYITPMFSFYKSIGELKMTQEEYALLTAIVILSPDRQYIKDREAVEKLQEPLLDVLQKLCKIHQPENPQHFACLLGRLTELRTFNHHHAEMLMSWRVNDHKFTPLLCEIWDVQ
Procedure: Purchasing Invitrogen PV4833 Kit.
Step 1, the compound was weighed and dissolved in 100% DMSO, the highest concentration is 3000 μM, and then diluted with DMSO by 3-fold serial dilution to get 10 concentrations.
Step 2, the above formulated compound solutions were diluted 100 times with the buffer provided in the kit, which were mixed respectively and 10 μL of which were added into a 384 well plate in turn.
Step 3, FXR recombinant nucleo receptor protein was diluted with a buffer to formulate 4× concentration, and 5 μL of which was added into the above 384 well plate containing the compound.
Step 4, Fluorescein-SRC2-2 and Tb anti-GST antibody were diluted with a buffer respectively, both concentration are 4×, after the two reagents were mixed together, 10 μL of which was added into the 384 well plate described in step 3.
At last, the solution in the 384 well plate was blend by centrifugation, and then incubated at room temperature for 1 hour.

[3] = Pharmacokinetic test in SD rats; format: in vivo; conditions: male, rat, plasma
Procedure: Experimental animals: 6 healthy male adult SD rats (purchased from Hunan SJA Laboratory Animal Co.; Ltd) were randomized into 2 groups, 3 in each group, the groups were administered by intravenous injection and gavage respectively.
Preparation of drugs: an amount of the compound was scaled, and the target concentrate of the compound was prepared by addition of 5% DMSO, 10% Kolliphor HS15 and 85% saline (0.9%).
Administration and samples collection: the animals were fasted 12 hours before administration and provided again 3 hours post-administration, SD rats were administrated by intravenous injection from hindlimb peduncular veins (1 mg/kg) and by gavage (PO, 5 mg/kg). 200-400 μL of blood was collected at different time points 0, 0.083, 0.25, 0.5, 1, 2, 4, 6, 8, 24 h from rats tail vein. Blood collection was 200-400 μL per time point. The blood collected at each time point was placed in K2EDTA anticoagulant tube, and stored at a couveuse with ice bags. All the samples in 15 min were centrifuged at 4600 r/min at 4° C. for 5 min, plasma samples were obtained, the concentrates of compound in the plasma samples were determined by LC/MS/MS, the pharmacokinetic parameters were calculated based on the drug concentration-time curve.

| half-life at 1 μM [1] [min] | ClHep [1] [mL/min/kg] | Structure (SMILES) | EC50 [2] [nM] | AUC(0-inf) ([3]; iv, 1 mg/kg) [ng·h/mL] | AUC(0-t) ([3]; iv, 1 mg/kg) [ng·h/mL] | Cmax ([3]; iv, 1 mg/kg) [ng/mL] | MRT inf ([3]; iv, 1 mg/kg) [min] | Tmax ([3]; iv, 1 mg/kg) [min] | clearance ([3]; iv, 1 mg/kg) [mL/min/kg] | half-life ([3]; iv, 1 mg/kg) [min] | Vd ([3]; iv, 1 mg/kg, read-out: Vss) [L/kg] | bioavailability ([3]; po 5 mg/kg versus iv 1 mg/kg) [%] | AUC(0-inf) ([3]; po, 5 mg/kg) [ng·h/mL] | AUC(0-t) ([3]; po, 5 mg/kg) [ng·h/mL] | Cmax ([3]; po, 5 mg/kg) [ng/mL] | MRT inf ([3]; po, 5 mg/kg) [min] | Tmax ([3]; po, 5 mg/kg) [min] | half-life ([3]; po, 5 mg/kg) [min] |
| --- | --- | --- | --- | --- | --- | --- | --- | --- | --- | --- | --- | --- | --- | --- | --- | --- | --- | --- |
| 28.8 | 86.33 | O=C(O)c1ccc2c(c1)Oc1ccc(OCc3c(-c4ccccc4OC(F)(F)F)noc3C3CC3)nc1CC2 [Example 2, 2-((5-cyclopropyl-3-(2-(trifluoromethoxy)phenyl)isoxazol-4-yl)methoxy)-10,11-dihydrobenzo[6,7]oxepino[3,2-b]pyridine-7-carboxylic acid] |  |  |  |  |  |  |  |  |  |  |  |  |  |  |  |  |
| 25 | 99.23 | O=C(O)c1ccc2c(c1)Oc1ccc(OCc3c(-c4ccc(Cl)cc4Cl)noc3C3CC3)nc1C1(CC1)C2 [Example 5, 2-((5-cyclopropyl-3-(2,4-dichlorophenyl)isoxazol-4-yl)methoxy)-10H-spiro[benzo[6,7]oxepino[3,2-b]pyridine-11,1′-cyclopropane]-7-carboxylic acid] |  |  |  |  |  |  |  |  |  |  |  |  |  |  |  |  |

| Structure (SMILES) | half-life at 1 μM [1] [min] | ClHep [1] [mL/min/kg] | EC50 [2] [nM] | AUC(0-inf) ([3]; iv, 1 mg/kg) [ng·h/mL] | AUC(0-t) ([3]; iv, 1 mg/kg) [ng·h/mL] | Cmax ([3]; iv, 1 mg/kg) [ng/mL] | MRT inf ([3]; iv, 1 mg/kg) [min] | Tmax ([3]; iv, 1 mg/kg) [min] | clearance ([3]; iv, 1 mg/kg) [mL/min/kg] | half-life ([3]; iv, 1 mg/kg) [min] | Vd ([3]; iv, 1 mg/kg, read-out: Vss) [L/kg] | bioavailability ([3]; po 5 mg/kg versus iv 1 mg/kg) [%] | AUC(0-inf) ([3]; po, 5 mg/kg) [ng·h/mL] | AUC(0-t) ([3]; po, 5 mg/kg) [ng·h/mL] | Cmax ([3]; po, 5 mg/kg) [ng/mL] | MRT inf ([3]; po, 5 mg/kg) [min] | Tmax ([3]; po, 5 mg/kg) [min] | half-life ([3]; po, 5 mg/kg) [min] |
| --- | --- | --- | --- | --- | --- | --- | --- | --- | --- | --- | --- | --- | --- | --- | --- | --- | --- | --- |
| O=C(O)c1ccc2c(c1)Oc1ccc(OCc3c(-c4ccccc4OC(F)(F)F)noc3C3CC3)nc1C1(CC1)C2 [Example 3, 2-((5-cyclopropyl-3-(2-(trifluoromethoxy)phenyl)isoxazol-4-yl)methoxy)-10H-Spiro[benzo[6,7]oxepino[3,2-b]pyridine-11,1′-cyclopropane]-7-carboxylic acid] | 26.8 | 92.61 | 8.6 | 1740 | 1730 | 1660 | 60.6 | 4.98 | 9.62 | 46.4 | 0.584 | 71.3 | 6210 | 6170 | 2320 | 103 | 60 | 53.5 |
